From the RepoRT retention time repository (doi:10.1021/acs.analchem.1c00972)

Columns and labels:
[1] = RP, Waters ACQUITY UPLC BEH C18, 100 × 1 mm, 1.7 µm, 50 °C, 0.3 mL/min, estimated dead time 0.17 min; A: water + 10 mM ammonium bicarbonate; B: 10% water + 90% methanol + 10 mM ammonium bicarbonate; gradient (min/%B) 0/0 15/100 21/100 22/0 30/0; details: stereoisomer not certain
[2] = RP, Waters ACQUITY UPLC BEH C18, 100 × 1 mm, 1.7 µm, 50 °C, 0.3 mL/min, estimated dead time 0.17 min; A: water + 0.1% formic acid + 20 mM ammonium formate; B: methanol + 0.1% formic acid + 20 mM ammonium formate; gradient (min/%B) 0/0 15/100 21/100 22/0 30/0; details: stereoisomer not certain

LC retention time [1] [min] | LC retention time [2] [min] | SMILES
7.04 | 4.07 | CN(C)c1ccncc1 [4-(Dimethylamino)pyridine]
16.8 | 12.5 | CC(CN1c2ccccc2Sc2ccccc21)N(C)C (stereo not drawn) [Promethazin]
14.2 | 13.9 | O=C(Nc1ccccc1)Nc1ccccc1Cl [1-(2-CHLOROPHENYL)-3-PHENYLUREA]
15.4 | 13.2 | CNCCC(Oc1cccc2ccccc12)c1cccs1 (stereo not drawn) [Duloxetine]
14.3 | 14 | CSc1nc2ccccc2s1 [2-(Methylthio)benzothiazole]
5.43 | 2.01 | CNCC(O)c1cccc(O)c1 (stereo not drawn) [Phenylephrine]
9.67 | 11.5 | COc1nc(C)nc(NC(=O)NS(=O)(=O)c2ccccc2OCCCl)n1 [Triasulfuron]
11.6 | 12.7 | Cc1onc(-c2ccccc2)c1C(=O)NC1C(=O)N2C1SC(C)(C)C2C(=O)O (stereo not drawn) [Oxacillin]
4.75 | 8.1 | CC(=O)Nc1ccc(N)cc1 [4'-Aminoacetanilide]
15.3 | 15 | COc1ccc(C(=O)c2ccccc2)c(O)c1 [Benzophenone-3]
15.6 | 15.3 | CCOC(=O)NCCOc1ccc(Oc2ccccc2)cc1 [Fenoxycarb]
10.7 | 10.7 | CN(C)S(=O)(=O)Nc1ccccc1 [DMSA]
12.6 | 12.3 | Cc1nc2ccccc2s1 [2-Methylbenzothiazole]
7.81 | – | Cc1c(NC=O)c(=O)n(-c2ccccc2)n1C [N-Formyl-4-aminoantipyrine]
17.4 | – | CN(C)CCC=C1c2ccccc2CCc2ccccc21 [Amitriptyline]

More lines, now with the values behind:

SMILES | LC retention time [1] [min] | LC retention time [2] [min]
COc1ccc2c3c1OC1C(O)C=CC4C(C2)N(C)CCC341 (stereo not drawn) [Codein] | 12.1 | 6.77
CCCCOCCOCCO [Diethylene glycol monobutyl ether] | 10.9 | 10.8
CNc1cnn(-c2cccc(C(F)(F)F)c2)c(=O)c1Cl [Norflurazon] | 13.5 | 13.3
O=C1CCCC2C3CCCN4CCCC(CN12)C34 (stereo not drawn) [Matrine] | 13 | 5.2
CC1=CC2OC3C(O)C(O)C(C)(C34CO4)C2(CO)C(O)C1=O (stereo not drawn) [Nivalenol] | 5.94 | 5.87
NC(=NCCCCCCN=C(N)N=C(N)Nc1ccc(Cl)cc1)N=C(N)Nc1ccc(Cl)cc1 [Chlorohexidine] | 6.38 | 12.2
CON=C(C(=O)OC)c1ccccc1COc1ccccc1C [Kresoxim-methyl] | 15.8 | 15.4
CC(C)c1nc(CN(C)C(=O)NC(C(=O)NC(Cc2ccccc2)CC(O)C(Cc2ccccc2)NC(=O)OCc2cncs2)C(C)C)cs1 (stereo not drawn) [Ritonavir] | 16.3 | 15.9
CCCOP(=S)(OCCC)SCC(=O)N1CCCCC1C (stereo not drawn) [Piperophos] | 16.6 | 16.3
CCCCCCCCCCCCNC [N-Methyldodecylamine] | 17.7 | 15.2
Cc1ccc(-c2c(Cl)nc(C#N)n2S(=O)(=O)N(C)C)cc1 [Cyazofamid] | 15.3 | 15
CC(C)(C)c1ccc(C(=O)CCCN2CCC(OC(c3ccccc3)c3ccccc3)CC2)cc1 [Ebastin] | 18.8 | 15.9
COC(C)C(O)(C(=O)OCC1=CCN2CCC(O)C12)C(C)C (stereo not drawn) [Heliotrine] | 11.6 | 8.05
COc1ccc(Cc2nccc3cc(OC)c(OC)cc23)cc1OC [Papaverin] | 13.3 | 9.77
O=P(O)(Oc1ccccc1)Oc1ccccc1 [Diphenylphosphate] | 10.9 | 11
COc1cc2c(c(OC)c1OC)-c1ccc(OC)c(=O)cc1C(NC(C)=O)CC2 (stereo not drawn) [Colchicine] | 11.6 | 11.4
CC[N+]1([O-])CCCC1CNC(=O)c1cc(S(N)(=O)=O)ccc1OC (stereo not drawn) [Sulpiride N-Oxide] | 6.84 | 6.62
CN(Cc1cnc2nc(N)nc(N)c2n1)c1ccc(C(=O)NC(CCC(=O)O)C(=O)O)cc1 (stereo not drawn) [Methotrexate] | 6.74 | 7.89

SMILES | LC retention time [1] [min] | LC retention time [2] [min]
CCCCCCCCCC[N+](C)(C)[O-] [N,N-Dimethyldecylamine-N-oxide] | 15.2 | 13.8
Cc1nccc2c1[nH]c1ccccc12 [Harman] | 13.4 | 9.01
CC=C(C)C(=O)OC1CC[N+]2([O-])CC=C(COC(=O)C(O)(C(C)OC)C(C)(C)O)C12 (stereo not drawn) [Lasiocarpine N-oxide] | 11.7 | 11
COCCCCC(=NOCCN)c1ccc(C(F)(F)F)cc1 [Fluvoxamine] | 15.3 | 13.5
CC(=O)OC1(C(C)=O)CCC2C3C=C(C)C4=CC(=O)CCC4(C)C3CCC21C (stereo not drawn) [Megestrol-17-acetate] | 15.6 | 15.3
COc1ccccc1Oc1c(NS(=O)(=O)c2ccc(C(C)(C)C)cc2)nc(-c2ncccn2)nc1OCCO [Bosentan] | 13.4 | 14.9
CC=C1CC(C)C(C)(O)C(=O)OCC2=CCN3CCC(OC1=O)C23 (stereo not drawn) [Senecionine] | 12.5 | 8.65
Cc1cccc2sc3nncn3c12 [Tricyclazole] | 10.4 | 10.3
COC(C)C(O)(C(=O)OCC1=CC[N+]2([O-])CCC(O)C12)C(C)C (stereo not drawn) [Heliotrine N-oxide] | 8.96 | 8.36
OC1C=C2CCN3Cc4cc5c(cc4C(C1O)C23)OCO5 (stereo not drawn) [Lycorine] | 9.11 | 4.33
COc1cc(Cl)c(OC)cc1N [4-Chloro-2,5-dimethoxyaniline] | 11.2 | 10.4
CC1=C2C3OC(=O)C(C)C3CCC2(C)C=CC1=O (stereo not drawn) [alpha-Santonin] | 11.5 | 11.3
CN1C(=O)CN=C(C2=CCCCC2)c2cc(Cl)ccc21 [Tetrazepam] | 15.7 | 15
CCc1cccc(CC)c1N(COC)C(=O)C(=O)O [Alachlor tert-oxanilic acid (OA)] | 15.9 | 15.5
O=C1Nc2ccc(Cl)cc2C(c2ccccc2)=NC1O (stereo not drawn) [Oxazepam] | 13.5 | 13.2
O=C1CCCCCN1 [epsilon-Caprolactam] | 7 | 6.99
Fc1ccc(C2CCNCC2COc2ccc3c(c2)OCO3)cc1 (stereo not drawn) [Paroxetine] | 15 | 12.8
